These results are taken from BindingDB's records for doi:10.1021/jm00040a008 (Harvard Medical School, 1994).

SMILES strings stand for the structures. pIC50: −log10 of the molar value.

This experiment in a line: Tested in vitro for inhibitory concentration against CCRF-CEM human Leukemic lymphoblast by using DHFR as primary target.

For `CCC(Cc1cnc2nc(N)nc(N)c2n1)c1ccc(C(=O)N[C@@H](CCC(=O)O)C(=O)O)cc1` (stereo partly specified) [Edatrexate], the negative-log IC50 (pIC50) was 8.59.
